For one assay, the target named is T1, BRAF V600E (Homo sapiens, UniProt P15056, V600E).
T1 construct: expressed in transfected cells
Description: Cellular assay of target protein degradation, T-Rex 293 cells stably transfected with HA-BRAF_V600E (HA immunofluorescence, high content imaging). The class given is cell-based. The following applies: T-Rex 293 HA-BRAF V600E; for DC50: half maximal degradation, read-out: BRaf V600E DC50; for Dmax: maximum degradation observed. The gist of the method: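 Degradation of the HA-tagged construct is measured after 24 h treatment at 37 °C across 1 μM to 0.1 nM in 0.1% DMSO, in doxycycline-induced (1 ng/mL) cells. DC50 and Dmax come from HA fluorescence imaging.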

In the next assay the target is T2, BRAF G466V (Homo sapiens, UniProt P15056, G466V).
T2 construct: expressed in transfected cells
T2 sequence (P15056 whole entry G466V): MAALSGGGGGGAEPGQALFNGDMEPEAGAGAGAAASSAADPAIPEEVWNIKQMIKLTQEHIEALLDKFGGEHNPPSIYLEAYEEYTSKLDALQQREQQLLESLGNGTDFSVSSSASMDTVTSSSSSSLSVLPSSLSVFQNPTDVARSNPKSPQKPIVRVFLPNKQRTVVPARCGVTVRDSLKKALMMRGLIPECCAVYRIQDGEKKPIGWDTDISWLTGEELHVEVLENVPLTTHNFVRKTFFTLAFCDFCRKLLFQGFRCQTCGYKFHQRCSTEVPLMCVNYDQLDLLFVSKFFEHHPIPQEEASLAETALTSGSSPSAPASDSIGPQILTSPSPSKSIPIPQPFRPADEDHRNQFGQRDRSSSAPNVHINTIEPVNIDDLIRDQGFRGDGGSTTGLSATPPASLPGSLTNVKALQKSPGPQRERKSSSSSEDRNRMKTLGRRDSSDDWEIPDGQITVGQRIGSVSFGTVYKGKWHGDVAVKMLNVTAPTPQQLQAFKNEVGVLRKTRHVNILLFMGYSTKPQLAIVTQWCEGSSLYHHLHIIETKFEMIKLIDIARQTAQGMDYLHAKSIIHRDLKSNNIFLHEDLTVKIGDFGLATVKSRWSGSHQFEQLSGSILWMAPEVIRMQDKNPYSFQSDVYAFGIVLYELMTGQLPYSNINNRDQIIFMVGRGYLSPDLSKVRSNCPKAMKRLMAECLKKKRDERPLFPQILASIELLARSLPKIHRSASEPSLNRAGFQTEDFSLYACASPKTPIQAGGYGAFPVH
The assay is described as follows: Cellular assay of target protein degradation, T-Rex 293 cells stably transfected with HA-BRAF G466V (HA immunofluorescence, high content imaging). The class given is cell-based. The following applies: T-Rex 293 HA-BRAF G466V; for DC50: half maximal degradation, read-out: BRaf G466V DC50; for Dmax: maximum degradation observed. The gist of the method:
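Dose range spans 30 nM to 3 pM (0.1% DMSO) over 24 hours at 37° C, in cells induced with 0.75 ng/mL doxycycline. Fixed cells are probed with anti-HA antibody overnight at 4° C, then imaged; half-maximal degradation and maximum degradation are derived.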

A value given as a limit tells only on which side of the number the result lay.

T1 sequence (P15056 whole entry V600E): as the sequence (P15056 whole entry G466V) above, with V466G, V600E counted along it

For the compound `O=C1CCC(N2Cc3cc(N4CC5(CN(CC6CCN(c7ccc(-c8cnc9[nH]cc(C(=O)c%10c(F)ccc(NS(=O)(=O)N%11CCC(F)(F)C%11)c%10F)c9c8)cc7)CC6)C5)C4)ccc3C2=O)C(=O)N1` (stereo not drawn) [Compound 246, N-[3-(5-{4-[4-({6-[2-(2,6-dioxopiperidin-3-yl)-1-oxo-2,3-dihydro-1H-isoindol-5-yl]-2,6-diazaspiro[3.3]heptan-2-yl}methyl)piperidin-1-yl]phenyl}-1H-pyrrolo [2,3-b]pyridine-3-carbonyl)-2,4-difluorophenyl]-3,3-difluoropyrrolidine-1-sulfonamide], at BRAF V600E, the DC50 (as a rule, the midpoint of the concentration-degradation curve) was 5 to 50 nM and the Dmax (commonly the largest share of the target that was removed) lay in the range of 35 to 70%. At BRAF G466V, the DC50 was in the range of 1 to 10 nM and the Dmax is greater than 70%.

As for `COc1cc(N2CCC(CN3CC4(C3)CN(c3ccc(-c5cnc6[nH]cc(C(=O)c7c(F)ccc(NS(=O)(=O)N8CCC(F)(F)C8)c7F)c6c5)cc3)C4)CC2)cc2c1C(=O)N(C1CCC(=O)NC1=O)C2` (stereo not drawn) [Compound 247, N-[3-(5-{4-[6-({1-[2-(2,6-dioxopiperidin-3-yl)-7-methoxy-1-oxo-2,3-dihydro-1H-isoindol-5-yl]piperidin-4-yl}methyl)-2,6-diazaspiro[3.3]heptan-2-yl]phenyl}-1H-pyrrolo[2,3-b]pyridine-3-carbonyl)-2,4-difluorophenyl]-3,3-difluoropyrrolidine-1-sulfonamide], the DC50 fell in the range of 5 to 50 nM on BRAF V600E and 1 to 10 nM on BRAF G466V. The figures for the Dmax at BRAF V600E and at BRAF G466V were less than 35% and greater than 70%, respectively.

As for `O=C1CCC(N2Cc3cc(CCCN4CC5(C4)CN(c4ccc(-c6cnc7[nH]cc(C(=O)c8c(F)ccc(NS(=O)(=O)N9CCC(F)(F)C9)c8F)c7c6)cc4)C5)ccc3C2=O)C(=O)N1` (stereo not drawn) [Compound 248, N-(3-{5-[4-(6-{3-[2-(2,6-dioxopiperidin-3-yl)-1-oxo-2,3-dihydro-1H-isoindol-5-yl]propyl}-2,6-diazaspiro[3.3]heptan-2-yl)phenyl]-1H-pyrrolo[2,3-b]pyridine-3-carbonyl}-2,4-difluorophenyl)-3,3-difluoropyrrolidine-1-sulfonamide], the 50% degradation concentration (DC50) at BRAF V600E was 5 to 50 nM; at BRAF G466V, 1 to 10 nM. In addition, the Dmax is 35 to 70% at BRAF V600E and greater than 70% on BRAF G466V.

On to `COc1cc(N2CC3(CN(CC4CCN(c5ccc(-c6cnc7[nH]cc(C(=O)c8c(F)ccc(NS(=O)(=O)N9CC[C@@H](F)C9)c8F)c7c6)cc5)CC4)C3)C2)cc2c1C(=O)N([C@H]1CCC(=O)NC1=O)C2` [Compound 249, (3R)-N-{3-[5-(4-{4-[(6-{2-[(3S)-2,6-dioxopiperidin-3-yl]-7-methoxy-1-oxo-2,3-dihydro-1H-isoindol-5-yl}-2,6-diazaspiro[3.3]heptan-2-yl)methyl]piperidin-1-yl}phenyl)-1H-pyrrolo [2,3-b]pyridine-3-carbonyl]-2,4-difluorophenyl}-3-fluoropyrrolidine-1-sulfonamide], for which, at BRAF V600E, the DC50 was in the range of 5 to 50 nM and the Dmax was in the range of 35 to 70%. Further, at BRAF G466V, the DC50 is 1 to 10 nM and the Dmax is greater than 70%.

On to `COc1cc(N2CC3(CN(CC4CCN(c5ccc(-c6cnc7[nH]cc(C(=O)c8c(F)ccc(NS(=O)(=O)N9CC[C@@H](F)C9)c8F)c7c6)cc5)CC4)C3)C2)cc2c1C(=O)N([C@@H]1CCC(=O)NC1=O)C2` [Compound 250, (3R)-N-{3-[5-(4-{4-[(6-{2-[(3R)-2,6-dioxopiperidin-3-yl]-7-methoxy-1-oxo-2,3-dihydro-1H-isoindol-5-yl}-2,6-diazaspiro[3.3]heptan-2-yl)methyl]piperidin-1-yl}phenyl)-1H-pyrrolo [2,3-b]pyridine-3-carbonyl]-2,4-difluorophenyl}-3-fluoropyrrolidine-1-sulfonamide], for which the figures for the DC50 on BRAF V600E and on BRAF G466V were 5 to 50 nM and 1 to 10 nM, respectively. Moreover, the results for the Dmax on BRAF V600E and at BRAF G466V were less than 35% and greater than 70%, respectively.

Turning to `O=C1CCC(N2Cc3cc(OCCCCN4CCN(c5ccc(-c6cnc7[nH]cc(C(=O)c8c(F)ccc(NS(=O)(=O)N9CCC(F)(F)C9)c8F)c7c6)cc5)CC4)ccc3C2=O)C(=O)N1` (stereo not drawn) [Compound 251, N-[3-(5-{4-[4-(4-{[2-(2,6-dioxopiperidin-3-yl)-1-oxo-2,3-dihydro-1H-isoindol-5-yl]oxy}butyl)piperazin-1-yl]phenyl}-1H-pyrrolo[2,3-b]pyridine-3-carbonyl)-2,4-difluorophenyl]-3,3-difluoropyrrolidine-1-sulfonamide], on BRAF V600E, the DC50 was in the range of 5 to 50 nM and the Dmax lay within 35 to 70%. In addition, at BRAF G466V, the DC50 lay within 1 to 10 nM and the Dmax was in the range of 35 to 70%.

As for `O=C1CC[C@H](N2Cc3cc(C4CCN(CC5CCN(c6ccc(-c7cnc8[nH]cc(C(=O)c9c(F)ccc(NS(=O)(=O)N%10CC[C@@H](F)C%10)c9Cl)c8c7)cc6)CC5)CC4)ccc3C2=O)C(=O)N1` [Compound 252, (3R)-N-{2-chloro-3-[5-(4-{4-[(4-{2-[(3S)-2,6-dioxopiperidin-3-yl]-1-oxo-2,3-dihydro-1H-isoindol-5-yl}piperidin-1-yl)methyl]piperidin-1-yl}phenyl)-1H-pyrrolo [2,3-b]pyridine-3-carbonyl]-4-fluorophenyl}-3-fluoropyrrolidine-1-sulfonamide], on BRAF V600E, the 50% degradation concentration (DC50) is 5 to 50 nM and the Dmax was in the range of 35 to 70%. Moreover, on BRAF G466V, the DC50 was less than 1 nM and the Dmax was 35 to 70%.

`Cc1c(NS(=O)(=O)N2CC[C@@H](F)C2)ccc(F)c1C(=O)c1c[nH]c2ncc(-c3ccc(N4CCC(CN5CCC(c6ccc7c(c6)CN([C@H]6CCC(=O)NC6=O)C7=O)CC5)CC4)cc3)cc12` [Compound 253, (3R)-N-{3-[5-(4-{4-[(4-{2-[(3S)-2,6-dioxopiperidin-3-yl]-1-oxo-2,3-dihydro-1H-isoindol-5-yl}piperidin-1-yl)methyl]piperidin-1-yl}phenyl)-1H-pyrrolo [2,3-b]pyridine-3-carbonyl]-4-fluoro-2-methylphenyl}-3-fluoropyrrolidine-1-sulfonamide]: on BRAF V600E, the DC50 fell in the range of 5 to 50 nM and the Dmax was in the range of 35 to 70%. Moreover, on BRAF G466V, the DC50 lay in the range of 1 to 10 nM and the Dmax lay within 35 to 70%.

Regarding `Nc1ccc(F)c(C(=O)c2c[nH]c3ncc(-c4ccc(N5CCC(CN6CCC(c7ccc8c(c7)CN([C@H]7CCC(=O)NC7=O)C8=O)CC6)CC5)cc4)cc23)c1F` [Compound 254, (3S)-3-(5-{1-[(1-{4-[3-(3-amino-2,6-difluorobenzoyl)-1H-pyrrolo[2,3-b]pyridin-5-yl]phenyl}piperidin-4-yl)methyl]piperidin-4-yl}-1-oxo-2,3-dihydro-1H-isoindol-2-yl) piperidine-2,6-dione], the DC50 at BRAF V600E was greater than 500 nM. At BRAF G466V, the DC50 is less than 1 nM and the Dmax was less than 35%.

With `N#Cc1cc(-c2cnc3[nH]cc(C(=O)c4c(F)ccc(NS(=O)(=O)N5CC[C@@H](F)C5)c4F)c3c2)ccc1N1CCC(CN2CCC(c3ccc4c(c3)CN(C3CCC(=O)NC3=O)C4=O)CC2)CC1` (stereo partly drawn) [Compound 255, (3R)-N-[3-(5-{3-cyano-4-[4-({4-[2-(2,6-dioxopiperidin-3-yl)-1-oxo-2,3-dihydro-1H-isoindol-5-yl]piperidin-1-yl}methyl)piperidin-1-yl]phenyl}-1H-pyrrolo [2,3-b]pyridine-3-carbonyl)-2,4-difluorophenyl]-3-fluoropyrrolidine-1-sulfonamide], at BRAF V600E, the DC50 is 5 to 50 nM and the Dmax fell in the range of 35 to 70%. Also, on BRAF G466V, the DC50 is less than 1 nM and the greatest degradation seen (Dmax) is greater than 70%.

For the compound `COc1cc(-c2cnc3[nH]cc(C(=O)c4c(F)ccc(NS(=O)(=O)N5CC[C@@H](F)C5)c4F)c3c2)ccc1N1CCC(CN2CCC(c3ccc4c(c3)CN([C@H]3CCC(=O)NC3=O)C4=O)CC2)CC1` [Compound 256, (3R)-N-{3-[5-(4-{4-[(4-{2-[(3S)-2,6-dioxopiperidin-3-yl]-1-oxo-2,3-dihydro-1H-isoindol-5-yl}piperidin-1-yl)methyl]piperidin-1-yl}-3-methoxyphenyl)-1H-pyrrolo[2,3-b]pyridine-3-carbonyl]-2,4-difluorophenyl}-3-fluoropyrrolidine-1-sulfonamide], on BRAF V600E, the DC50 is 5 to 50 nM and the Dmax was in the range of 35 to 70%. Besides, on BRAF G466V, the DC50 is less than 1 nM and the greatest degradation seen (Dmax) was greater than 70%.

As to `CNc1cc(-c2cnc3[nH]cc(C(=O)c4c(F)ccc(NS(=O)(=O)N5CC[C@@H](F)C5)c4F)c3c2)ccc1N1CCC(CN2CCC(c3ccc4c(c3)CN(C3CCC(=O)NC3=O)C4=O)CC2)CC1` (stereo partly drawn) [Compound 257, (3R)-N-[3-(5-{4-[4-({4-[2-(2,6-dioxopiperidin-3-yl)-1-oxo-2,3-dihydro-1H-isoindol-5-yl]piperidin-1-yl}methyl)piperidin-1-yl]-3-(methylamino)phenyl}-1H-pyrrolo[2,3-b]pyridine-3-carbonyl)-2,4-difluorophenyl]-3-fluoropyrrolidine-1-sulfonamide], on BRAF V600E, the half-maximal degradation concentration (DC50) was in the range of 5 to 50 nM and the greatest degradation seen (Dmax) was 35 to 70%. At BRAF G466V, the DC50 was in the range of 1 to 10 nM and the Dmax was greater than 70%.

As to `O=C1CC[C@H](N2Cc3cc(N4CCC(CN5CCC6(CCN(c7ccc(-c8cnc9[nH]cc(C(=O)c%10c(F)ccc(NS(=O)(=O)N%11CC[C@@H](F)C%11)c%10F)c9c8)cc7F)CC6)C5)CC4)ccc3C2=O)C(=O)N1` [Compound 258, (3R)-N-{3-[5-(4-{2-[(1-{2-[(3S)-2,6-dioxopiperidin-3-yl]-1-oxo-2,3-dihydro-1H-isoindol-5-yl}piperidin-4-yl)methyl]-2,8-diazaspiro[4.5]decan-8-yl}-3-fluorophenyl)-1H-pyrrolo[2,3-b]pyridine-3-carbonyl]-2,4-difluorophenyl}-3-fluoropyrrolidine-1-sulfonamide], on BRAF V600E, the DC50 was less than 5 nM and the Dmax was in the range of 35 to 70%. At BRAF G466V, the DC50 was less than 1 nM and the Dmax lay within 35 to 70%.

For the origin of these results see patent publication US12180193B2, “Accelerating fibrosarcoma protein degrading compounds and associated methods of use” (Arvinas Operations, Inc., priority 2020, dated 2024).
